Reference: the OPERA property sets (Mansouri et al. 2018)

Details: for log10 BCF / log10 biotransformation half-life (days): fish

SMILES | melting point [°C] | boiling point [°C] | also measured
NS(=O)(=O)c1ccc(CCCO)cc1 | 95.5 |  | 
CC1CC(C)(C)CC1=O (configuration not stated) | -25.6 | 160 | 
N#Cc1ccccc1O | 98 |  | 
O=C(O)Cc1cccc2ccccc12 | 135 |  | log10 Koc (L/kg): 2.2; ready biodegradability: not readily biodegradable; log10 BCF: 0.47
O=S(=O)(c1ccc(Cl)cc1)c1ccc(Cl)cc1 | 148 |  | ready biodegradability: not readily biodegradable
ClC=CCCl (mixture of isomers) | -50 | 109 | log10 Henry constant (atm·m³/mol): -2.62; log10 Koc (L/kg): 1.67
Cc1c(C)c([N+](=O)[O-])c(C(C)(C)C)c([N+](=O)[O-])c1C | 136 |  | 
CCN1CCCC1CNC(=O)c1cc(S(=O)(=O)CC)ccc1OC (configuration not stated) | 182 |  | 
CCN(Cc1ccncc1)C(=O)C(CO)c1ccccc1 (configuration not stated) | 96.5 |  | 
CC(=O)OCC(=O)[C@@]1(O)[C@H](OC(C)=O)C[C@H]2[C@@H]3CCC4=CC(=O)C=C[C@]4(C)[C@@]3(F)[C@@H](O)C[C@@]21C | 235 |  | 
CC(=O)OCCCOC(C)=O |  | 210 | 
CCCCCCCCCCCCCCCCCCCCCC1CCCC1 | 42 | 420 | 
C=CCOC(=O)c1ccco1 |  | 208 | 
COP(=S)(OC)Oc1ccc(SC)c(C)c1 | 7.5 |  | log10 Koc (L/kg): 3.18; log10 vapour pressure (mmHg): -4.98; log10 BCF: 2.52; log10 biotransformation half-life (days): -0.36
CC(=O)F | -84 | 20.8 | 
CCOC(C)CC (configuration not stated) |  | 81 | 
CNC(=O)Oc1cc(C)c(SC)c(C)c1 | 120 |  | log10 Henry constant (atm·m³/mol): -8.93; log10 Koc (L/kg): 2.32; log10 vapour pressure (mmHg): -6.57
C=CCCCCCC=C |  | 142 | 
CCN(CC)N=O |  | 177 | log10 Henry constant (atm·m³/mol): -5.44; log10 vapour pressure (mmHg): -0.0655; ready biodegradability: not readily biodegradable
O=S1OC[C@@H]2[C@H](CO1)[C@]1(Cl)C(Cl)=C(Cl)[C@@]2(Cl)C1(Cl)Cl (some centres not stated) |  |  | log10 Koa: 8.64
CCCCC(CC)COC(=O)CC(C(=O)OCC(CC)CCCC)S(=O)(=O)O (configuration not stated) |  |  | log10 BCF: 0.97

SMILES | melting point [°C] | boiling point [°C] | also measured
O=Cc1cccc([N+](=O)[O-])c1 | 58.5 |  | log10 vapour pressure (mmHg): -2.14
CC1=CCCC=C1 |  | 108 | 
Cc1ccc2c(c1Cl)C(=O)c1ccccc1C2=O | 170 |  | 
C#CC(C)(C)NC(=O)c1ccccc1 |  |  | log10 Koc (L/kg): 1.54
O=[N+]([O-])c1ccccc1I | 54 | 290 | 
C[Si](Cl)(Cl)c1ccccc1 |  | 206 | log10 vapour pressure (mmHg): -0.312
CC1=C(C(=O)Nc2ccccc2)S(=O)(=O)CCO1 | 120 |  | log10 Koc (L/kg): 1.98; log10 vapour pressure (mmHg): -7.38
CC(=O)c1ccccc1O | 5 | 218 | 
NNC(=O)c1ccc(N)cc1 | 226 |  | 
CCCN.Cl | 161 |  | 
CCCCCCCCCCCCC1CCCCC1 | 12.5 | 331 | 
O=CNC1CCCCC1 | 39.5 | 260 | 
CP(=O)(O)CCC(N)C(=O)[O-].[NH4+] (configuration not stated) | 215 |  | 
CCOC(=O)C(F)(F)C(F)(F)F | 75.5 |  | 
Cc1ccc(C)c(OCCCC(C)(C)C(=O)O)c1 | 62 |  | 
O=CCC=O | 72 |  | 
COCC(C)OCC(C)OCC(C)O (configuration not stated) |  | 250 | log10 vapour pressure (mmHg): -1.7
NCCO.O=C(Nc1ccc([N+](=O)[O-])cc1Cl)c1cc(Cl)ccc1O | 216 |  | 
CCCCCCCCCCCCCOP(Oc1ccccc1)Oc1ccccc1 |  |  | ready biodegradability: not readily biodegradable
O=C(O)Cc1c(-c2ccccc2)c(-c2ccccc2)nn1-c1ccccc1 | 200 |  | 
Clc1cc(Cl)c(-c2c(Cl)ccc(Cl)c2Cl)cc1Cl |  |  | log10 Koa: 9.27; log10 Koc (L/kg): 5.79; log10 vapour pressure (mmHg): -5.07

SMILES | melting point [°C] | boiling point [°C] | also measured
CCCCCCCCCCCCOS(=O)(=O)[O-].[Na+] | 206 |  | 
O=C(Nc1ccccc1)C(Cl)(Cl)Cl | 96 |  | 
CCOC(=O)C(C(C)=O)C(C)C (configuration not stated) |  | 201 | 
CCOC(=O)CCCCCCCCCCCCCCCCC(=O)OCC | 54.5 |  | 
Nc1ccccc1 | -6 | 184 | log10 Henry constant (atm·m³/mol): -5.69; log10 Koc (L/kg): 1.6; log10 vapour pressure (mmHg): -0.31; ready biodegradability: readily biodegradable; log10 BCF: 0.21; log10 biotransformation half-life (days): -0.78
FC(F)(F)C(F)(F)C(F)(F)N(C(F)(F)C(F)(F)C(F)(F)F)C(F)(F)C(F)(F)C(F)(F)F | -52 | 130 | 
CC(c1ccccc1)C(C)(C)O (configuration not stated) | 46 | 197 | 
COP(=O)(OC)OC(=CCl)c1cc(Cl)c(Cl)cc1Cl | 96.3 |  | log10 Koc (L/kg): 3.01; log10 vapour pressure (mmHg): -7.38; ready biodegradability: not readily biodegradable; log10 BCF: 1.61; log10 biotransformation half-life (days): -1.02
Cc1cc(Br)cc(Br)c1O | 58 |  | 
C[Si](C)(C)CO |  | 121 | 
CN(C)C(=O)c1ccccc1 | 44 |  | log10 Koc (L/kg): 1.6
CCC(COCCOc1c(I)cc(I)c(NC(C)=O)c1I)C(=O)O (configuration not stated) | 130 |  | 
NC(=O)c1cccc([N+](=O)[O-])c1 | 143 | 312 | log10 Koc (L/kg): 1.95
C1CSCCO1 |  | 147 | 
CC(CO)N(C)C (configuration not stated) |  | 150 | 
N#Cc1cc([N+](=O)[O-])ccc1N |  |  | ready biodegradability: not readily biodegradable
Clc1cc(Cl)c(-c2c(Cl)cc(Cl)cc2Cl)c(Cl)c1 |  |  | log10 Koa: 8.99; log10 Koc (L/kg): 6.08; log10 vapour pressure (mmHg): -4.92
C[C@@H](N)[C@@H](O)c1ccccc1 | 101 |  | 
CCOCCl |  | 83 | 
CCc1nc(N)nc(N)c1-c1ccc(Cl)cc1 | 234 |  | 
